What was measured:
[1] = system: C. elegans; experiment: Efficacy against nematodes (C. elegans motility rating); set-up: key: 0: no effect; 7: reduced movement in 24 h; 8: dead in 24 h; 9: dead in 4 h; conditions: observations at 4 h and 24 h postimmersion
Method in brief: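 Mixed-stage C. elegans (~50 per well, L1 to adult) in M9 buffer exposed to test compound at 100 ppm, 150 ppm or 200 μM final. Motility of larvae and adults scored under dissecting microscope at 4 h and 24 h.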

[2] = system: Trichostrongylus columbriformis; experiment: In vivo efficacy against T. colubriformis in infected gerbils; conditions: gerbils infected with T. colubriformis; single oral dose of 50 mg/kg by gavage; worm counts four days post-treatment; % mortality as compared to negative control
Procedure: In Vivo Evaluation of the Efficacy of Test Compounds Against T. colubriformis
In this evaluation, gerbils are infected with Trichostrongylus columbriformis infective larvae at a concentration of approximately 800 L3/mL. Larvae for gerbil infections are cultured from feces from sheep previously infected with T. colubriformis. One week post infection, test compounds are administered by gavage as a single oral dose of 50 mg/kg of body weight. For each group of 3 gerbils, 10 mg of test compound are dissolved in 2 mL of PEG 400:DMSO (1:2 v/v) and each animal is administered the test solution at a rate of 0.1 mL/10 g of body weight. […] All animals are observed daily for morbidity and mortality. Four days post-treatment, all animals are weighed and necropsied. Worm counts are conducted with the use of stereoscopes and counters.

For Cc1ccccc1C1=C(O)C(=Cc2ccc(-c3ccccc3C)cc2)OC1=O, the Rating ([1]; dose 150 ppm) was 8 and the Mortality [2] was 21.30%.
In the case of Cc1ccccc1-c1ccc(C=C2OC(=O)C(c3cccc(Cl)c3)=C2O)cc1C, the Rating ([1]; dose 150 ppm) is reported as 9 and the Mortality [2] is reported as 10.80%.
O=C1O/C(=C\c2ccc(-c3ccc(Cl)c(Cl)c3)cc2)C(O)=C1c1ccc(Cl)c(Cl)c1 showed a Rating ([1]; dose 150 ppm) of 9 and a Mortality [2] of 22.00%.
C=CCOC1=C(c2ccc(Cl)cc2)C(=O)OC1=Cc1ccc(C#N)cc1 (mixture of isomers) showed a Rating ([1]; dose 100 ppm) of 0 and a Mortality [2] of 0.00%.
Compound N#Cc1ccc(-c2ccc(C=C3OC(=O)C(c4cccc(C(F)(F)F)c4)=C3O)cc2)cc1 (mixture of isomers) has a Rating ([1]; dose 100 ppm) of 9 and a Mortality [2] of 47.50%.
O=C1OC(=Cc2ccc(-c3ccc(Cl)cc3)cc2)C(O)=C1c1cccc(C(F)(F)F)c1 (mixture of isomers) showed a Rating ([1]; dose 100 ppm) of 9 and a Mortality [2] of 31.30%.
N#Cc1cccc(C2=C(O)C(=Cc3ccc(-c4ccc(Cl)cc4)cc3)OC2=O)c1 (mixture of isomers) gave a Rating ([1]; dose 100 ppm) of 9 and a Mortality [2] of 0.00%.
N#Cc1ccc(-c2ccc(C=C3OC(=O)C(c4cccc(Cl)c4)=C3O)cc2)cc1 (mixture of isomers) gave a Rating ([1]; dose 100 ppm) of 9 and a Mortality [2] of 32.00%.
For O=C1OC(=Cc2ccc(-c3ccc(Cl)cc3)cc2)C(O)=C1c1cccc(Cl)c1 (mixture of isomers), the Rating ([1]; dose 100 ppm) was 9 and the Mortality [2] was 37.60%.
For N#Cc1ccc(-c2ccc(C=C3OC(=O)C(c4ccc(C(F)(F)F)cc4)=C3O)cc2)cc1 (mixture of isomers), the Rating ([1]; dose 100 ppm) was 9 and the Mortality [2] was 91.50%.
Compound N#Cc1ccc(C2=C(O)C(=Cc3ccc4c(c3)OC(F)(F)O4)OC2=O)cc1 (mixture of isomers) has a Rating ([1]; dose 100 ppm) of 9 and a Mortality [2] of 88.10%.
Work on N#Cc1ccc(C2=C(O)C(=Cc3ccc(Cl)s3)OC2=O)cc1 (mixture of isomers) yielded a Rating ([1]; dose 100 ppm) of 9 and a Mortality [2] of 20.60%.
Work on O=C1OC(=Cc2ccc(-c3ccc(C(F)(F)F)cc3)cc2)C(O)=C1c1ccc(Cl)cc1 (mixture of isomers) yielded a Rating ([1]; dose 100 ppm) of 9 and a Mortality [2] of 0.00%.
Work on N#Cc1ccc(-c2ccc(C=C3OC(=O)C(c4ccc(F)cc4)=C3O)cc2)cc1 (mixture of isomers) yielded a Rating ([1]; dose 100 ppm) of 9 and a Mortality [2] of 31.80%.
O=C1OC(=Cc2ccc(-c3ccc(Cl)cc3)cc2)C(O)=C1c1ccc(F)cc1 (mixture of isomers) showed a Rating ([1]; dose 100 ppm) of 9 and a Mortality [2] of 1.60%.
O=C1OC(=Cc2ncccc2Br)C(O)=C1c1ccc(OC(F)(F)F)cc1 (mixture of isomers) showed a Rating ([1]; dose 100 ppm) of 0 and a Mortality [2] of 26.90%.
Work on O=C1OC(=Cc2cnccc2Br)C(O)=C1c1ccc(OC(F)(F)F)cc1 (mixture of isomers) yielded a Rating ([1]; dose 100 ppm) of 9 and a Mortality [2] of 12.80%.
O=C1OC(=Cc2cnccc2-c2ccc(F)cc2)C(O)=C1c1ccc(OC(F)(F)F)cc1 (mixture of isomers) showed a Rating ([1]; dose 100 ppm) of 9 and a Mortality [2] of 12.80%.
O=C1OC(=Cc2cnccc2-c2cccs2)C(O)=C1c1ccc(OC(F)(F)F)cc1 (mixture of isomers) showed a Rating ([1]; dose 100 ppm) of 9 and a Mortality [2] of 12.80%.
Work on O=C1OC(=Cc2ccc(Cl)s2)C(O)=C1c1ccc(OC(F)(F)F)cc1 (mixture of isomers) yielded a Rating ([1]; dose 100 ppm) of 9 and a Mortality [2] of 26.10%.
N#Cc1ccc(C=C2OC(=O)C(c3ccc(-c4ccc(C#N)cc4)cc3)=C2O)cc1 (mixture of isomers) showed a Rating ([1]; dose 100 ppm) of 9 and a Mortality [2] of 29.80%.
For N#Cc1ccc(-c2ccc(C3=C(O)C(=Cc4ccc(Cl)cc4)OC3=O)cc2)cc1 (mixture of isomers), the Rating ([1]; dose 100 ppm) was 9 and the Mortality [2] was 13.10%.
For O=C1OC(=Cc2ccc(C(F)(F)F)cc2)C(O)=C1c1ccc(-c2ccc(Cl)cc2)cc1 (mixture of isomers), the Rating ([1]; dose 100 ppm) was 9 and the Mortality [2] was 21.30%.
In the case of N#Cc1ccc(C=C2OC(=O)C(c3ccc(-c4ccc(Cl)cc4)cc3)=C2O)cc1 (mixture of isomers), the Rating ([1]; dose 100 ppm) is reported as 9 and the Mortality [2] is reported as 0.00%.
O=C1OC(=Cc2ccc(Cl)cc2)C(O)=C1c1ccc(-c2ccc(Cl)cc2)cc1 (mixture of isomers) gave a Rating ([1]; dose 100 ppm) of 9 and a Mortality [2] of 0.00%.
Work on COC1=C(c2ccc(Cl)cc2)C(=O)OC1=Cc1ccc(C#N)cc1 (mixture of isomers) [R=CH3; R1=4-Cl—C6H4**; R2=4-CN—C6H4] yielded a Rating ([1]; dose 100 ppm) of 0 and a Mortality [2] of 0.00%.
O=C1OC(=Cc2ccc(C(F)(F)F)cc2)C(O)=C1c1cccc(C(F)(F)F)c1 (mixture of isomers) [R=H; R1=3-CF3—C6H4**; R2=4-CF3—C6H4] showed a Rating ([1]; dose 100 ppm) of 9 and a Mortality [2] of 0.00%.
N#Cc1ccc(C=C2OC(=O)C(c3cccc(C(F)(F)F)c3)=C2O)cc1 (mixture of isomers) [R=H; R1=3-CF3—C6H4**; R2=4-CN—C6H4] showed a Rating ([1]; dose 100 ppm) of 9 and a Mortality [2] of 0.00%.
O=C1OC(=Cc2ccc(F)cc2)C(O)=C1c1cccc(C(F)(F)F)c1 (mixture of isomers) [R=H; R1=3-CF3—C6H4**; R2=4-F—C6H4] was tested, and the Rating ([1]; dose 100 ppm) was 9 and the Mortality [2] was 36.40%.
In the case of N#Cc1cccc(C2=C(O)C(=Cc3ccc(C(F)(F)F)cc3)OC2=O)c1 (mixture of isomers) [R=H; R1=3-CN—C6H4**; R2=4-CF3—C6H4], the Rating ([1]; dose 100 ppm) is reported as 9 and the Mortality [2] is reported as 0.00%.
Work on N#Cc1ccc(C=C2OC(=O)C(c3cccc(C#N)c3)=C2O)cc1 (mixture of isomers) [R=H; R1=3-CN—C6H4**; R2=4-CN—C6H4] yielded a Rating ([1]; dose 100 ppm) of 9 and a Mortality [2] of 25.50%.
For N#Cc1cccc(C2=C(O)C(=Cc3ccc(Cl)cc3)OC2=O)c1 (mixture of isomers) [R=H; R1=3-CN—C6H4**; R2=4-Cl—C6H4], the Rating ([1]; dose 100 ppm) was 9 and the Mortality [2] was 0.00%.
N#Cc1cccc(C2=C(O)C(=Cc3ccc(F)cc3)OC2=O)c1 (mixture of isomers) [R=H; R1=3-CN—C6H4**; R2=4-F—C6H4] showed a Rating ([1]; dose 100 ppm) of 7 and a Mortality [2] of 0.00%.
With O=C1OC(=Cc2ccc(C(F)(F)F)cc2)C(O)=C1c1cccc(Cl)c1 (mixture of isomers) [R=H; R1=3-Cl—C6H4**; R2=4-CF3—C6H4] the Rating ([1]; dose 100 ppm) was 9 and the Mortality [2] was 57.90%.
Compound N#Cc1ccc(C=C2OC(=O)C(c3cccc(Cl)c3)=C2O)cc1 (mixture of isomers) [R=H; R1=3-Cl—C6H4**; R2=4-CN—C6H4] has a Rating ([1]; dose 100 ppm) of 9 and a Mortality [2] of 43.70%.
Work on O=C1OC(=Cc2ccc(Cl)cc2)C(O)=C1c1cccc(Cl)c1 (mixture of isomers) [R=H; R1=3-Cl—C6H4**; R2=4-Cl—C6H4] yielded a Rating ([1]; dose 100 ppm) of 9 and a Mortality [2] of 18.80%.
O=C1OC(=Cc2ccc(F)cc2)C(O)=C1c1cccc(Cl)c1 (mixture of isomers) [R=H; R1=3-Cl—C6H4**; R2=4-F—C6H4] showed a Rating ([1]; dose 100 ppm) of 9 and a Mortality [2] of 3.00%.
N#Cc1ccc(C2=C(O)C(=Cc3cccc(C(F)(F)F)c3)OC2=O)cc1 (mixture of isomers) [R=H; R1=4-CN—C6H4**; R2=3-CF3—C6H4] showed a Rating ([1]; dose 100 ppm) of 9 and a Mortality [2] of 50.00%.
N#Cc1ccc(C2=C(O)C(=Cc3ccc(F)cc3)OC2=O)cc1 (mixture of isomers) [R=H; R1=4-CN—C6H4**; R2=4-F—C6H4] was tested, and the Rating ([1]; dose 100 ppm) was 9 and the Mortality [2] was 82.10%.
Work on N#Cc1ccc(C2=C(O)C(=Cc3ccc(OC(F)(F)C(F)F)cc3)OC2=O)cc1 (mixture of isomers) [R=H; R1=4-CN—C6H4**; R2=4-OCF2CHF2—C6H4] yielded a Rating ([1]; dose 100 ppm) of 9 and a Mortality [2] of 92.80%.
For N#Cc1ccc(C2=C(O)C(=Cc3ccc(OC(F)F)cc3)OC2=O)cc1 (mixture of isomers) [R=H; R1=4-CN—C6H4**; R2=4-OCHF2—C6H4], the Rating ([1]; dose 100 ppm) was 9 and the Mortality [2] was 48.40%.
O=C1OC(=Cc2ccc(Cl)cc2Cl)C(O)=C1c1ccc(Cl)cc1 (mixture of isomers) [R=H; R1=4-Cl—C6H4**; R2=2,4-diCl—C6H4] gave a Rating ([1]; dose 100 ppm) of 9 and a Mortality [2] of 91.40%.
With O=C1OC(=Cc2ccc(Cl)c(Cl)c2)C(O)=C1c1ccc(Cl)cc1 (mixture of isomers) [R=H; R1=4-Cl—C6H4**; R2=3,4-diCl—C6H4] the Rating ([1]; dose 100 ppm) was 9 and the Mortality [2] was 58.0%.
O=C1OC(=Cc2ccc(C(F)(F)F)cc2)C(O)=C1c1ccc(F)cc1 (mixture of isomers) [R=H; R1=4-F—C6H4**; R2=4-CF3—C6H4] was tested, and the Rating ([1]; dose 100 ppm) was 9 and the Mortality [2] was 25.60%.
N#Cc1ccc(C=C2OC(=O)C(c3ccc(F)cc3)=C2O)cc1 (mixture of isomers) [R=H; R1=4-F—C6H4**; R2=4-CN—C6H4] gave a Rating ([1]; dose 100 ppm) of 9 and a Mortality [2] of 14.70%.
For O=C1OC(=Cc2ccc(Cl)cc2)C(O)=C1c1ccc(F)cc1 (mixture of isomers) [R=H; R1=4-F—C6H4**; R2=4-Cl—C6H4], the Rating ([1]; dose 100 ppm) was 9 and the Mortality [2] was 0.00%.
O=C1OC(=Cc2ccc(F)cc2)C(O)=C1c1ccc(F)cc1 (mixture of isomers) [R=H; R1=4-F—C6H4**; R2=4-F—C6H4] gave a Rating ([1]; dose 100 ppm) of 9 and a Mortality [2] of 0.00%.
With O=C1O/C(=C\c2ccc(Cl)cc2)C(O)=C1c1ccc(-c2ccccc2)c(F)c1 [R=H; R1=4-(3-F-biphenyl); R2=4-CI-C6H4] the Mortality [2] was 22.00%.
With O=C1O/C(=C\c2cccc(Cl)c2)C(O)=C1c1ccc(Cl)cc1 [R=H; R1=4-Cl—C6H4; R2=3-CI-C6H4] the Mortality [2] was 25.40%.
O=C1O/C(=C\c2cc(C(F)(F)F)ccc2Cl)C(O)=C1c1ccc(-c2ccccc2)cc1 [R=H; R1=4-biphenyl; R2=2-Cl—5-CF3—C6H4] showed a Mortality [2] of 38.40%.
